# Earlier results, collected in publication PMC8944975, “Secretin Receptor as a Target in Gastrointestinal Cancer: Expression Analysis and Ligand Development” (Biomedicines, 2022).
# Where no end group is shown, it is not given here.
# What was measured:
# [1] = system: pancreatic secretion of both fluid and bicarbonate; conditions: cited from earlier work
# From the text: (§1) Early studies of secretin had shown that its biological activity resides particularly in the amino terminus. […] Despite their lack of activation, these truncated peptides were able to displace native secretin at high concentrations.
# [2] = system: isolated pancreatic membranes; conditions: cited from earlier work
# From the text: as §1
# SCTR = conditions: variant of rat secretin(5–27); cited from earlier work
# From the text: as §1
substance,measurement,setting,value
"[(CH2NH)4,5]secretin","effect on pancreatic secretion, in words",[1],dose-dependently increased pancreatic secretion of both fluid and bicarbonate
"Secretin(2–27): N-terminally truncated secretin variant (amino acids 2–27) of the literature (SDGTFTSELSRLREGARLQRLLQGLV; ends and bridges not checked; UniProt P09683 29-54, looked up, fragment)","effect on cAMP synthesis / agonistic effects, in words",[2],severe reduction on cAMP synthesis
"[I17, R25]-secretin(5–27)",affinity,SCTR,23 nM
